Drawing on patent US20070248701A1, “METHODS AND FORMULATIONS FOR INHIBITING NATURALLY OCCURRING PHOSPHODIESTERASE” (priority 2003, published 2007), this text covers IC50 for 2 compounds.

The target of experiment [1] is T1, Phosphodiesterase PDE6 (Bos taurus, UniProt P11541+P23439).
T1 sequence (P11541 1-859): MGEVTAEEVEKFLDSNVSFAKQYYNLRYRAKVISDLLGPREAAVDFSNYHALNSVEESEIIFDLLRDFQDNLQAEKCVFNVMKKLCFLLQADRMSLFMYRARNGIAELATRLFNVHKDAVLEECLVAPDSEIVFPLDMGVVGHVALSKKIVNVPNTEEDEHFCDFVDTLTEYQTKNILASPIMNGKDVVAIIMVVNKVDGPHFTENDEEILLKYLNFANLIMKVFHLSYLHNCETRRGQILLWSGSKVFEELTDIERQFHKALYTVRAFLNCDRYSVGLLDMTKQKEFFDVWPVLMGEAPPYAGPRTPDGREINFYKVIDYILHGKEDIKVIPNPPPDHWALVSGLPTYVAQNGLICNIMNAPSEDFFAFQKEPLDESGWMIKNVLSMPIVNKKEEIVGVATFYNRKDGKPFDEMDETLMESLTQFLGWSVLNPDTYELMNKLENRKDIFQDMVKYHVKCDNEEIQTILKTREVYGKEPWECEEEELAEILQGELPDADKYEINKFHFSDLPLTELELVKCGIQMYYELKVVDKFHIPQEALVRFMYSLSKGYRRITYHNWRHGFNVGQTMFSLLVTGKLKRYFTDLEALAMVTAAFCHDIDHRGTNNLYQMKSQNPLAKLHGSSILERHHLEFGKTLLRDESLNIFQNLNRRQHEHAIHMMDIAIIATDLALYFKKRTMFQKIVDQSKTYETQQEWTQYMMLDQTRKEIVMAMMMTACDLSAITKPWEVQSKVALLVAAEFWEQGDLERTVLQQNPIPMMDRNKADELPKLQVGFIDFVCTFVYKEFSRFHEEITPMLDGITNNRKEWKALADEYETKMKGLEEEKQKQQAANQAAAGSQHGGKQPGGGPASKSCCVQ
T1 sequence (P23439 1-853): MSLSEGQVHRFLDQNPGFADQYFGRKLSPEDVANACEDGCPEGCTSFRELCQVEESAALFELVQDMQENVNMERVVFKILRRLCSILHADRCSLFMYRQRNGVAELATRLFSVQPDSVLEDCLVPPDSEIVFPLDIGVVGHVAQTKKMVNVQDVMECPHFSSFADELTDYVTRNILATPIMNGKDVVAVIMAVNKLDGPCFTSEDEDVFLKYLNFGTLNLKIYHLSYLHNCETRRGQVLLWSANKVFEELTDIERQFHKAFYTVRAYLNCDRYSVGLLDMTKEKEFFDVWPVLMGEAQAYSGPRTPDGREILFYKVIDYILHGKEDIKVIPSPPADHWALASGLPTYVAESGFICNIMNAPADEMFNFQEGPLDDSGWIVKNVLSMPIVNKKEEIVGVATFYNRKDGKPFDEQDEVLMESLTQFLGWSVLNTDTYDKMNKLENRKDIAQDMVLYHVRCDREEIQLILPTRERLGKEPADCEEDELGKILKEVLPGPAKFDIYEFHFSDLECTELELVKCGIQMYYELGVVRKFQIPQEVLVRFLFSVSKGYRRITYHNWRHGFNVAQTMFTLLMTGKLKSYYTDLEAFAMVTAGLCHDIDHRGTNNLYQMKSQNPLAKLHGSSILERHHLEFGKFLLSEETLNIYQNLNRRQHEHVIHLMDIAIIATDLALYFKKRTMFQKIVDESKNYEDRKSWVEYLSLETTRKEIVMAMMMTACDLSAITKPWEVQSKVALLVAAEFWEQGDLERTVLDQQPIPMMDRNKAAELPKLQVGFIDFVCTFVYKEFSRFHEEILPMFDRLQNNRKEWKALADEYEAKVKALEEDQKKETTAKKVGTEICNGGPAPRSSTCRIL
As to conditions: reference compound, historical value; cited from earlier work.

Experiment [2] has as its target T1, Phosphodiesterase PDE6. Nature of the experiment: Phosphodiesterase PDE6 enzyme assay. In kind it is biochemical, bovine. The conditions noted are these: reference compound tested concurrently, batch 70682; read-out: Concurrent IC50. On the procedure: The test material (TNPJCon) was tested using an Enzyme assays that involve PDE enzymes from both bovine and human origin known as PDE1, PDE2, PDE3, PDE4, PDE6. All of the enzyme assays were run on a 1% concentration of TNPJCon. Please note that the IC50 was not determined.

The target in experiment [3] is T2, Phosphodiesterase PDE5 (Homo sapiens, UniProt O76074). Nature of the experiment: Phosphodiesterase PDE5 enzyme assay. In kind it is biochemical. As to conditions: reference compound tested concurrently, batch 70681; read-out: Concurrent IC50.
The target in experiment [4] is T3, Phosphodiesterase PDE3 (Homo sapiens, UniProt Q14432). Nature of the experiment: Phosphodiesterase PDE3 enzyme assay. Type of experiment: biochemical. As to conditions: reference compound tested concurrently, batch 70679; read-out: Concurrent IC50.
T3 sequence (Q14432 whole entry): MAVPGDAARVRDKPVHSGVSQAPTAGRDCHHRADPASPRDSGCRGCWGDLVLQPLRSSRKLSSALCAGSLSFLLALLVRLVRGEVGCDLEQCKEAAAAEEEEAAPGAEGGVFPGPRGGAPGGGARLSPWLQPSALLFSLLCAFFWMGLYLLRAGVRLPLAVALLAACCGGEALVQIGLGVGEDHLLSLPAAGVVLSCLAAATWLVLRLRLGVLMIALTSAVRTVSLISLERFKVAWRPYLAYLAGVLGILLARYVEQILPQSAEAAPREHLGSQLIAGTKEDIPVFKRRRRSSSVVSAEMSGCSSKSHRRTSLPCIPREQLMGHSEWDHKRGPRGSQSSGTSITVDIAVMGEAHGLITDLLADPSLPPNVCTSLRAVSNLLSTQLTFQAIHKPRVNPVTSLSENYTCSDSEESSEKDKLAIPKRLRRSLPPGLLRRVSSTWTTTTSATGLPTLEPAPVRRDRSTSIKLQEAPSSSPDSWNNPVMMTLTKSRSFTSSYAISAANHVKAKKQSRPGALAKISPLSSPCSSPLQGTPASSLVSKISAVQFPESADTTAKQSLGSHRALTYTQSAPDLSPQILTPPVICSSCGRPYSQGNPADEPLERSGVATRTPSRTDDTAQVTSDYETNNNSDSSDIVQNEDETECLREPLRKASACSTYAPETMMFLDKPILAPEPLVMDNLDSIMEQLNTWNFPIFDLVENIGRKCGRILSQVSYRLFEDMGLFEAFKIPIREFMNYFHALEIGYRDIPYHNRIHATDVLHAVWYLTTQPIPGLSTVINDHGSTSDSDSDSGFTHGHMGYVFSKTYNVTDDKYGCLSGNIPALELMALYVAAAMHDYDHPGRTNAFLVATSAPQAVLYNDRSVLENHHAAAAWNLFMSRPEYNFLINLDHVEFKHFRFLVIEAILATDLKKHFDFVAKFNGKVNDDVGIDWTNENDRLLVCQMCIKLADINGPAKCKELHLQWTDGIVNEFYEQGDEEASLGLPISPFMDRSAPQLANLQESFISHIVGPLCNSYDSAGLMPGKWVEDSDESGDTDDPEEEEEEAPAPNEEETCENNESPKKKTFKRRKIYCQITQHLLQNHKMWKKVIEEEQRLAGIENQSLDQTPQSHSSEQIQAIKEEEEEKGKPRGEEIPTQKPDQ
For experiment [5], the target named is Phosphodiesterase PDE1. The conditions noted are these: reference compound, historical value; cited from earlier work.
Experiment [6] addresses T2, Phosphodiesterase PDE5. As to conditions: reference compound, historical value; cited from earlier work.
Experiment [7] has as its target Phosphodiesterase PDE4. As to conditions: reference compound, historical value; cited from earlier work.
For experiment [8], the target named is Phosphodiesterase PDE4. Put plainly: Phosphodiesterase PDE4 enzyme assay. In kind it is biochemical, human. As to conditions: reference compound tested concurrently, batch 70680; read-out: Concurrent IC50.
Experiment [9] deals with T4, Phosphodiesterase PDE2 (Homo sapiens, UniProt O00408). The conditions noted are these: reference compound, historical value; cited from earlier work.
T4 sequence (O00408 whole entry): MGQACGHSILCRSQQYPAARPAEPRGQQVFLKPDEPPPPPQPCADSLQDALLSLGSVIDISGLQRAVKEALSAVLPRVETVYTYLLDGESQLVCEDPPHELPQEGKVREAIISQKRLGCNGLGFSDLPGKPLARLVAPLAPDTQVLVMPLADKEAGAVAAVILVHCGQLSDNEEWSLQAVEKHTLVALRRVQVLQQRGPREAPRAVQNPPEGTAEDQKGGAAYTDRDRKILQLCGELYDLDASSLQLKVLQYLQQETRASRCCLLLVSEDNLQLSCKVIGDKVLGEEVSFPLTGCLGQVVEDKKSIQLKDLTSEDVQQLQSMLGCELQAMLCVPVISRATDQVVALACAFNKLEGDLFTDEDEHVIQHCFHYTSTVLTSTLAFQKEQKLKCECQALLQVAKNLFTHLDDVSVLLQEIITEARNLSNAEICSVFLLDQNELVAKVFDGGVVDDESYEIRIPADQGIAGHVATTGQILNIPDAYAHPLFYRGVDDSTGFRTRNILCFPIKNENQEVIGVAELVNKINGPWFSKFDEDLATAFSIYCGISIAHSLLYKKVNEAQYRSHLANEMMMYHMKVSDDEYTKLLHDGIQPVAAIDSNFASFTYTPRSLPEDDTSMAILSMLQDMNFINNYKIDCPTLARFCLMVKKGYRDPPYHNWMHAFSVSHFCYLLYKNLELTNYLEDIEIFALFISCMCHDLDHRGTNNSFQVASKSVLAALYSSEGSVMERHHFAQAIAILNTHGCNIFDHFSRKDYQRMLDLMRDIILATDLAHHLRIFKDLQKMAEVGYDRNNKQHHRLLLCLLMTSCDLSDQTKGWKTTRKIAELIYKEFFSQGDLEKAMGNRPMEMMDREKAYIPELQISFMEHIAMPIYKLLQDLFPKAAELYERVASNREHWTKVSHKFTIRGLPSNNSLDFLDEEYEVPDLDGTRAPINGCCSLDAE
In experiment [10] the target is T4, Phosphodiesterase PDE2. Put plainly: Phosphodiesterase PDE2 enzyme assay. Type of experiment: biochemical. The conditions noted are these: reference compound tested concurrently, batch 70678; read-out: Concurrent IC50.
The target of experiment [11] is T3, Phosphodiesterase PDE3. As to conditions: reference compound, historical value; cited from earlier work.
The target in experiment [12] is Phosphodiesterase PDE1. Put plainly: Phosphodiesterase PDE1 enzyme assay. Type of experiment: biochemical, bovine. As to conditions: reference compound tested concurrently, batch 70431; read-out: Concurrent IC50.

For orientation: IC50 means the midpoint of a concentration-inhibition curve.

Where two headings read alike, the source gives them in different places.

Regarding `CCCOc1ccccc1-c1nc2nn[nH]c2c(=O)[nH]1` [Zaprinast], the results for the IC50 at Phosphodiesterase PDE6 [1] and at Phosphodiesterase PDE6 [2] were 0.22 µM and 0.281 µM, respectively.
As for `CC(C)Cn1c(=O)n(C)c(=O)c2[nH]cnc21` [IBMX], the IC50 at Phosphodiesterase PDE5 [3] was 65.4 µM; on Phosphodiesterase PDE3 [4] it was 20.8 µM; at Phosphodiesterase PDE1 [5] it was 1.1 µM; on Phosphodiesterase PDE5 [6] it was 63 µM; on Phosphodiesterase PDE4 [7] it was 6.5 µM; at Phosphodiesterase PDE4 [8], 30.8 µM. Further, the IC50 on Phosphodiesterase PDE2 [9] is 30 µM; at Phosphodiesterase PDE2 [10], 81 µM; on Phosphodiesterase PDE3 [11], 4.6 µM; on Phosphodiesterase PDE1 [12] it was 3.76 µM.
